# Results from ChEMBL document CHEMBL3885861, “Open TG-GATES”.
# Organism: Rattus norvegicus
# Assay: Open TG-GATES - Regimen: Single
# Type: toxicity, organism-based, Sprague-Dawley
# Set-up: regimen Single, gender Male, age 6 weeks
# Conditions: in vivo, po, 100 mg/kg, route gavage, dose level High; for Bas / Eos / Hb / Ht / Lym / MCH / MCHC / MCV / Mono / Neu / Plat / RBC / Ret / WBC: tissue Blood; for KIDNEY_L / KIDNEY_R / KIDNEY_TOTAL: tissue Kidney; for LIVER: tissue Liver; for A/G / ALP / ALT / AST / BUN / CRE / Ca / Cl / DBIL / GLC / IP / K / LDH / Na / PL / RALB / TBIL / TC / TG / TP / gamma-GTP: tissue Plasma
structure (smiles),measurement,setting,value
Cc1ccc2cc3c(ccc4ccccc43)c3c2c1CC3 [3-METHYLCHOLANTHRENE],TERMINAL_BW,3 h,211 g
same,Bas,3 h,0%
same,Eos,3 h,1%
same,Hb,3 h,12.4 g/dL
same,Ht,3 h,38.7%
same,Lym,3 h,74.4%
same,MCH,3 h,20.1 pg
same,MCHC,3 h,32.2%
same,MCV,3 h,62.6 fL
same,Mono,3 h,3.2%
same,Neu,3 h,21%
same,Plat,3 h,125.2 x10_4/uL
same,RBC,3 h,618.4 x10_4/ul
same,Ret,3 h,9.2%
same,WBC,3 h,117.6 x10_2/uL
same,KIDNEY_L,3 h,0.9 g
same,KIDNEY_R,3 h,0.9 g
same,KIDNEY_TOTAL,3 h,1.8 g
same,LIVER,3 h,9.5 g
same,A/G,3 h,1
same,ALP,3 h,1507 IU/L
same,ALT,3 h,44.4 IU/L
same,AST,3 h,77.4 IU/L
same,BUN,3 h,12.9 mg/dL
same,CRE,3 h,0.1 mg/dL
same,Ca,3 h,10.8 mg/dL
same,Cl,3 h,101.9 meq/L
same,DBIL,3 h,0.002 mg/dL
same,GLC,3 h,180.4 mg/dL
same,IP,3 h,8.7 mg/dL
same,K,3 h,4.3 meq/L
same,LDH,3 h,276.8 IU/L
same,Na,3 h,139.4 meq/L
same,PL,3 h,178.2 mg/dL
same,RALB,3 h,2.9 g/dL
same,TBIL,3 h,0.012 mg/dL
same,TC,3 h,89.8 mg/dL
same,TG,3 h,164.2 mg/dL
same,TP,3 h,5.7 g/dL
same,gamma-GTP,3 h,0.7 IU/L
same,TERMINAL_BW,6 h,206.7 g
same,Bas,6 h,0%
same,Eos,6 h,0.2%
same,Hb,6 h,12.6 g/dL
same,Ht,6 h,38.9%
same,Lym,6 h,75.6%
same,MCH,6 h,20.6 pg
same,MCHC,6 h,32.4%
same,MCV,6 h,63.6 fL
same,Mono,6 h,4.2%
same,Neu,6 h,18.8%
same,Plat,6 h,136.5 x10_4/uL
same,RBC,6 h,612 x10_4/ul
same,Ret,6 h,9%
same,WBC,6 h,135.9 x10_2/uL
same,KIDNEY_L,6 h,0.9 g
same,KIDNEY_R,6 h,0.9 g
same,KIDNEY_TOTAL,6 h,1.7 g
same,LIVER,6 h,8.9 g
same,A/G,6 h,1
same,ALP,6 h,1605.4 IU/L
same,ALT,6 h,37.2 IU/L
same,AST,6 h,71.4 IU/L
same,BUN,6 h,8.3 mg/dL
same,CRE,6 h,0.1 mg/dL
same,Ca,6 h,10.6 mg/dL
same,Cl,6 h,104.8 meq/L
same,DBIL,6 h,0.002 mg/dL
same,GLC,6 h,175.4 mg/dL
same,IP,6 h,9.2 mg/dL
same,K,6 h,4.3 meq/L
same,LDH,6 h,203.2 IU/L
same,Na,6 h,141 meq/L
same,PL,6 h,165.6 mg/dL
same,RALB,6 h,2.9 g/dL
same,TBIL,6 h,0.022 mg/dL
same,TC,6 h,85.6 mg/dL
same,TG,6 h,83.5 mg/dL
same,TP,6 h,5.7 g/dL
same,gamma-GTP,6 h,0.8 IU/L
same,TERMINAL_BW,9 h,206.7 g
same,Bas,9 h,0%
same,Eos,9 h,0.6%
same,Hb,9 h,12.7 g/dL
same,Ht,9 h,39%
same,Lym,9 h,75.8%
same,MCH,9 h,20.6 pg
same,MCHC,9 h,32.4%
same,MCV,9 h,63.6 fL
same,Mono,9 h,3.4%
same,Neu,9 h,19.4%
same,Plat,9 h,125.7 x10_4/uL
same,RBC,9 h,613.8 x10_4/ul
same,Ret,9 h,8.6%
same,WBC,9 h,108.2 x10_2/uL
same,KIDNEY_L,9 h,0.9 g
same,KIDNEY_R,9 h,0.9 g
same,KIDNEY_TOTAL,9 h,1.8 g
same,LIVER,9 h,9 g
same,A/G,9 h,1
same,ALP,9 h,1396.4 IU/L
same,ALT,9 h,34.4 IU/L
same,AST,9 h,70.4 IU/L
same,BUN,9 h,9.8 mg/dL
same,CRE,9 h,0.1 mg/dL
same,Ca,9 h,10.6 mg/dL
same,Cl,9 h,104 meq/L
same,DBIL,9 h,0.002 mg/dL
same,GLC,9 h,179.4 mg/dL
same,IP,9 h,10.6 mg/dL
same,K,9 h,4.6 meq/L
same,LDH,9 h,248.8 IU/L
same,Na,9 h,142.5 meq/L
same,PL,9 h,150.4 mg/dL
same,RALB,9 h,2.8 g/dL
same,TBIL,9 h,0.004 mg/dL
same,TC,9 h,79.2 mg/dL
same,TG,9 h,95 mg/dL
same,TP,9 h,5.6 g/dL
same,gamma-GTP,9 h,0.6 IU/L
same,TERMINAL_BW,24 h,218 g
same,Bas,24 h,0%
same,Eos,24 h,0%
same,Hb,24 h,12.8 g/dL
same,Ht,24 h,39.2%
same,Lym,24 h,81.2%
same,MCH,24 h,20 pg
same,MCHC,24 h,32.6%
same,MCV,24 h,61.6 fL
same,Mono,24 h,3%
same,Neu,24 h,14.6%
same,Plat,24 h,124.3 x10_4/uL
same,RBC,24 h,636.8 x10_4/ul
same,Ret,24 h,8.1%
same,WBC,24 h,127.1 x10_2/uL
same,KIDNEY_L,24 h,0.9 g
same,KIDNEY_R,24 h,0.9 g
same,KIDNEY_TOTAL,24 h,1.9 g
same,LIVER,24 h,11.2 g
same,A/G,24 h,1
same,ALP,24 h,1595.4 IU/L
same,ALT,24 h,38.6 IU/L
same,AST,24 h,69.4 IU/L
same,BUN,24 h,16.7 mg/dL
same,CRE,24 h,0.2 mg/dL
same,Ca,24 h,11 mg/dL
same,Cl,24 h,103.1 meq/L
same,DBIL,24 h,0.002 mg/dL
same,GLC,24 h,171.4 mg/dL
same,IP,24 h,7.4 mg/dL
same,K,24 h,4.7 meq/L
same,LDH,24 h,188.8 IU/L
same,Na,24 h,141.6 meq/L
same,PL,24 h,181.2 mg/dL
same,RALB,24 h,2.8 g/dL
same,TBIL,24 h,0 mg/dL
same,TC,24 h,92 mg/dL
same,TG,24 h,209.4 mg/dL
same,TP,24 h,5.5 g/dL
same,gamma-GTP,24 h,0.9 IU/L
